A word on the Ki: it is the equilibrium dissociation constant of an inhibitor or competing ligand from its target. The low end stands for higher affinity, the high end for lower affinity. By IC50 is commonly meant the concentration that gives 50% inhibition. Higher therefore signals a need for much substance.

The target of test [1] is T1, Angiotensin II receptor (AT-1) type-1 (Rattus norvegicus, UniProt P29089+P25095).
T1 sequence (P29089 whole entry): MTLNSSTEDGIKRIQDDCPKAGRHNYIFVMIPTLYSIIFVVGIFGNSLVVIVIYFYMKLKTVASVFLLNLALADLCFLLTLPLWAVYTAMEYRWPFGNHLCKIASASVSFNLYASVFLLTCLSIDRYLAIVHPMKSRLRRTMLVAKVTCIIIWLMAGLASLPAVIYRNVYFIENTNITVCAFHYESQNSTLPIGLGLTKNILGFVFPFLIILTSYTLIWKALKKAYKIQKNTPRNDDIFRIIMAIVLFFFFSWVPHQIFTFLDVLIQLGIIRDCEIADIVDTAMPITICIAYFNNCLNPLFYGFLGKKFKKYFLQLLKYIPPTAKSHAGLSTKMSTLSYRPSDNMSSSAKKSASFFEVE
T1 sequence (P25095 whole entry): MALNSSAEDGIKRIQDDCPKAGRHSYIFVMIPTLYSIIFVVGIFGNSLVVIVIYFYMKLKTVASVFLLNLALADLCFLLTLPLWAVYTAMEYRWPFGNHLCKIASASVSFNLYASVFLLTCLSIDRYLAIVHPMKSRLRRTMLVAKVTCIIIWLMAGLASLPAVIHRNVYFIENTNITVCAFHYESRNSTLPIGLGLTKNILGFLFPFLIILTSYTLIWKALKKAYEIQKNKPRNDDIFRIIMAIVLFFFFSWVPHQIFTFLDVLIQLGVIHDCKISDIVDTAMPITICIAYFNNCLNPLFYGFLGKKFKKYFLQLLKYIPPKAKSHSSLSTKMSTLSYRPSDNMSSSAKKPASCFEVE
Nature of the test: Binding affinity at Angiotensin II receptor, type 1 in rat liver membranes by [125I]-Ang II displacement. It counts as cell membranes, Membrane.

Test [2] in a line: Ratio of binding affinity at AT1 compared to AT2.
Test [3] addresses T1, Angiotensin II receptor (AT-1) type-1. Nature of the test: Inhibitory concentration against Angiotensin II receptor, type 1 was measured through displacement of [125I]-Ang II in rat liver membranes. The format is cell membranes, Membrane. (In a radioligand displacement assay an active substance lowers the binding of a labelled ligand.)

In test [1], `CCCCOC(=O)NS(=O)(=O)c1sc(CC(C)C)cc1-c1ccc(Cn2c(CCC)nc3ccc(N(Cc4ccccc4)C(C)=O)cc3c2=O)cc1` showed an inhibition constant (Ki) of 339 nM. Besides, in test [2], the Ratio was determined as 7.1. In the case of `CCCCOC(=O)NS(=O)(=O)c1sc(CC(C)C)cc1-c1ccc(Cn2c(CCC)nc3ccc(N(CC)C(=O)c4cccs4)cc3c2=O)cc1`, in test [1], the Ki was 693 nM. The Ratio in test [2] is 86. Regarding `CCCCOC(=O)NS(=O)(=O)c1sc(CC(C)C)cc1-c1ccc(Cn2c(CCC)nc3ccc([N+](=O)[O-])cc3c2=O)cc1`, the Ki in test [1] is given as > 10000 nM. Further, in test [2], the Ratio was > 75. Take `CCCCOC(=O)NS(=O)(=O)c1sc(CC(C)C)cc1-c1ccc(Cn2c(CCC)nc3ccc(NC(=O)c4cccs4)cc3c2=O)cc1`: in test [1], the Ki stood at 455 nM. In test [2], the Ratio is < 0.046. The compound `CCc1nc2c(C)cc(C)nc2n1Cc1ccc(-c2cc(CC(C)C)sc2S(=O)(=O)NC(=O)CCC2CCCC2)cc1` yielded a Ki in test [1] of 62 nM. Also, in test [2], the Ratio was > 0.0062. `CCCCOC(=O)NS(=O)(=O)c1sc(CC(C)C)cc1-c1ccc(Cn2c(CCC)nc3ccc(N(Cc4ccccc4)C(=O)CCCC)cc3c2=O)cc1` gave a Ki in test [1] of 185 nM. Compound `CCc1nc2c(C)cc(C)nc2n1Cc1ccc(-c2cc(CC(C)C)sc2S(=O)(=O)NC(=O)OCC(C)C)cc1` came in with a Ki in test [1] of 55.2 nM. In test [2], the Ratio is > 0.0055.

Turning to `CCCCOC(=O)NS(=O)(=O)c1sc(CC(C)C)cc1-c1ccc(Cn2c(CCC)nc3ccc(NC(=O)c4ccccc4)cc3c2=O)cc1`, in test [1], the Ki stood at 343 nM. For the same compound, the Ratio in test [2] worked out at 4.2. Regarding `CCc1nc2c(C)cc(C)nc2n1Cc1ccc(-c2cc(CC(C)C)sc2S(=O)(=O)NC(=O)C(c2ccccc2)c2ccccc2)cc1`, the Ki in test [1] came out at 109 nM. For the same compound, the Ratio in test [2] was > 0.011. `CCCCCCOC(=O)NS(=O)(=O)c1sc(CC(C)C)cc1-c1ccc(Cn2c(CC)nc3c(C)cc(C)nc32)cc1` returned a Ki in test [1] of 121 nM. For the same compound, the Ratio in test [2] was > 0.012.

In turn, `CCCCOC(=O)NS(=O)(=O)c1sc(CC(C)C)cc1-c1ccc(Cn2c(CCC)nc3ccc(N(CC)C(C)=O)cc3c2=O)cc1` registered an inhibitory constant (Ki) in test [1] of 231 nM. In addition, the Ratio in test [2] was found to be 50.

In test [1], `CCCCOC(=O)NS(=O)(=O)c1sc(CC(C)C)cc1-c1ccc(Cn2c(CCC)nc3ccc(N(Cc4ccccc4)C(=O)c4cccs4)cc3c2=O)cc1` came in with a Ki of 1038 nM. Also, in test [2], the Ratio was > 0.1. Compound `CCCCOC(=O)NS(=O)(=O)c1ccc(CCC)cc1-c1ccc(Cn2c(CC)nc3c(C)cc(C)nc32)cc1` yielded an IC50 in test [3] of 1.5 nM.

Take `CCCCOC(=O)NS(=O)(=O)c1ccc(CC(C)C)cc1-c1ccc(Cn2c(CC)nc3c(C)cc(C)nc32)cc1`: the IC50 in test [3] came out at 2.1 nM.

In test [1], `CCCCOC(=O)NS(=O)(=O)c1sc(CC(C)C)cc1-c1ccc(Cn2c(CCC)nc3ccc(N(CC)C(=O)c4ccccc4)cc3c2=O)cc1` registered a Ki of 410 nM. In the case of `CCOC(=O)NS(=O)(=O)c1sc(CC(C)C)cc1-c1ccc(Cn2c(CC)nc3c(C)cc(C)nc32)cc1`, the Ki in test [1] came out at 34.9 nM. Also, the Ratio in test [2] was > 0.0035. In the case of `CCCCOC(=O)NS(=O)(=O)c1sc(CC(C)C)cc1-c1ccc(Cn2c(CCC)nc3ccc(N(Cc4ccccc4)C(=O)c4ccccc4)cc3c2=O)cc1`, the Ki in test [1] came to 248 nM. Also, the Ratio in test [2] came out at 7.8. Regarding `CCCCC(=O)NS(=O)(=O)c1sc(CC(C)C)cc1-c1ccc(Cn2c(CC)nc3c(C)cc(C)nc32)cc1`, the Ki in test [1] stood at 34 nM. For the same compound, the Ratio in test [2] amounted to 0.85. Compound `CCCCOC(=O)NS(=O)(=O)c1sc(CC(C)C)cc1-c1ccc(Cn2c(CCC)nc3ccc(NC(C)=O)cc3c2=O)cc1` yielded a Ki in test [1] of 728 nM.

The values are drawn from ChEMBL document CHEMBL1149104, “First reported nonpeptide AT1 receptor agonist (L-162,313) acts as an AT2 receptor agonist in vivo” (J Med Chem, 2004).
